Each compound was assayed against human TGFβR1 (Homo sapiens (Human), UniProt P36897) (assay: ADP-Glo kinase activity assay: TGFβR1 phosphorylates TGFβR1tide). Conditions: ATP 5 uM, TGFβR1 0.5 ng/ul, TGFβR1tide 0.1 ug/ul, 60 minutes at room temperature.
Chain of human TGFβR1 (P36897 34-503): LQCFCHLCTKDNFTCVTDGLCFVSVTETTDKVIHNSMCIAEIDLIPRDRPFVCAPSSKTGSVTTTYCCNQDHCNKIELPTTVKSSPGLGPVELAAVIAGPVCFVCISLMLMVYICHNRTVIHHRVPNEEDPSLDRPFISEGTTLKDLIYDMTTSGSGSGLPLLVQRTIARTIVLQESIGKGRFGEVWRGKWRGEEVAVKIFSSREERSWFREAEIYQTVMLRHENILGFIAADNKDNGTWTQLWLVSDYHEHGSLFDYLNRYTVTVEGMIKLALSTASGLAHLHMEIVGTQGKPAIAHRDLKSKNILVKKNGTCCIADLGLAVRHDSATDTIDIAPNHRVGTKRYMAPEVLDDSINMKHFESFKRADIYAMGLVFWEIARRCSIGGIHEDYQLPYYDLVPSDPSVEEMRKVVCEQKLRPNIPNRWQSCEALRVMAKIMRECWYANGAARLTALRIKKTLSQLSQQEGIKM
Assay type: biochemical
Protocol: The principle of the activity assay was that TGFβR1 phosphorylates the substrate TGFβR1tide, consuming ATP in the process. This experiment employed the ADP-Glo method to detect kinase activity and determine the IC50 value, which was used to evaluate the inhibitory ability of the test compounds against human TGFβR1. In the experiment, DSM was used as a negative control, and LY364947 was used as a positive control. The specific experimental steps were as follows. Compounds were diluted 4-fold in DMSO in a dilution plate, with the final starting concentration of the compounds being 10 μM, across 10 concentration gradient points. The compounds were then further diluted 50-fold into the kinase reaction buffer and incubated on a shaker for 20 minutes. Kinase was formulated with an enzyme reaction buffer. 2 μl kinase was added to each well of the reaction plate. 1 μl of the compound diluted in buffer was added to each well, and then the plate was sealed with a sealing membrane and centrifuged at 1000 g for 30 seconds, leaving it at room temperature for 10 minutes. Solutions of TGFβR1tide and ATP were prepared with the kinase reaction buffer, and 2 μL of the TGFβR1tide/ATP solution was added to the reaction plate. The plate was sealed with a sealing film and centrifuged at 1000 g for 30 seconds. It was allowed to react at room temperature for 60 minutes. Subsequently, 4 μL of ADP-Glo was transferred to a 384-well reaction plate and centrifuged at 1000 rpm/min for 1 minute, followed by incubation at 25° C. for 40 minutes. Then, 8 μL of Detection solution was transferred to the 384-well reaction plate and centrifuged at 1000 rpm/min for 1 minute, after which it was incubated at 25° C. for 40 minutes. The RLU (Relative Luminescence Unit) signal was read using a BMG microplate reader, which was used to characterize the degree of kinase activity.
3.1 The inhibition rate was calculated as follows: inhibition rate of compound (% inh)=100%−(compound−positive control)/(negative control−positive control)*100%.
The IC50 (half inhibition concentration) of a compound was obtained using the following non-linear fitting equation, wherein data analysis was performed using Graphpad 7.0 software.
• 3.3.1 After an experimenter completed the report writing, another experimenter conducted a second inspection to ensure the accuracy of data analysis. • 3.3.2 Data were exported from BMG and analyzed manually. • 3.3.2.1 The ratios were converted to inhibition rates and IC50 was calculated by Prism GraphPad 7.0 from the inhibition rates. • 3.3.2.2 IC50 was calculated again by the ratios to verify accuracy of the results.
`Cc1cccc(-c2nc3n(c2-c2ccc4[nH]ncc4c2)CC2CC32)n1` (stereo not drawn) [Compound 5, 3-(1H-Indazol-5-yl)-2-(6-methylpyridin-2-yl)-5,5a,6,6a-tetrahydrocyclopropane[3,4]pyrrolo[1,2-a]imidazole] gave an IC50 of 15 nM. `Cc1cccc(-c2nc3n(c2-c2ccn4nccc4c2)CC2CC32)n1` (stereo not drawn) [Compound 36, 2-(6-Methylpyridin-2-yl)-3-(pyrazolo[1,5-a]pyridin-5-yl)-5,5a,6,6a-tetrahydrocyclopropyl[3,4]pyrrolo[1,2-a]imidazole] showed an IC50 of 13 nM. Compound `Cc1cccc(-c2nc3n(c2-c2ccc4ncnn4c2)CC2CC32)n1` (stereo not drawn) [Compound 18, 3-([1,2,4]Triazolyl[1,5-a]pyridin-6-yl)-2-(6-methylpyridin-2-yl)-5,5a,6,6a-tetrahydrocyclopropane[3,4]pyrrolo[1,2-a]imidazole] has an IC50 of 5.6 nM. `Cc1cccc(-c2nc3n(c2-c2ccc4nc[nH]c4c2)CC2CC32)n1` (stereo not drawn) [Compound 35, 3-(1H-Benzo[d]imidazol-6-yl)-2-(6-methylpyridin-2-yl)-5,5a,6,6a-tetrahydrocyclopropyl[3,4]pyrrolo[1,2-a]imidazole] showed an IC50 of 12 nM. `Cc1cccc(-c2nc3n(c2-c2ccc4ncoc4c2)CC2CC32)n1` (stereo not drawn) [Compound 20, 6-(2-(6-Methylpyridin-2-yl)-5,5a,6,6a-tetrahydrocyclopropane[3,4]pyrrolo[1,2-a]imidazol-3-yl)benzo[d]oxazole] gave an IC50 of 38 nM. For `Cc1cccc(-c2nc3n(c2-c2ccc4ncn(C)c4c2)CC2CC32)n1` (stereo not drawn) [Compound 16, 3-(1-Methyl-1H-benzo[d]imidazol-6-yl)-2-(6-methylpyridin-2-yl)-5,5a,6,6a-tetrahydrocyclopropane[3,4]pyrrolo[1,2-a]imidazole], the IC50 was 4.9 nM. With `Cc1cccc(-c2nc3n(c2-c2ccnc(-c4nc5c([nH]4)CNC5)c2)CC2CC32)n1` (stereo not drawn) [Compound 8, 2-(6-Methylpyridin-2-yl)-3-(2-(1,4,5,6-tetrahydropyrrolo[3,4-d]imidazol-2-yl)pyridin-4-yl)-5,5a,6,6a-tetrahydrocyclopropane[3,4]pyrrolo[1,2-a]imidazole] the IC50 was 22 nM. In the case of `Cc1cccc(-c2nc3n(c2-c2ccc4ncsc4c2)CC2CC32)n1` (stereo not drawn) [Compound 21, 6-(2-(6-Methylpyridin-2-yl)-5,5a,6,6a-tetrahydrocyclopropane[3,4]pyrrolo[1,2-a]imidazol-3-yl)benzo[d]thiazole], the IC50 is reported as 6 nM. `Cc1cccc(-c2nc3n(c2-c2ccc4nccn4c2)CC2CC32)n1` (stereo not drawn) [Compound 19, 3-(Imidazolo[1,2-a]pyridin-6-yl)-2-(6-methylpyrridin-2-yl)-5,5a,6,6a-tetrahydrocyclopropane[3,4]pyrrolo[1,2-a]imidazole] gave an IC50 of 50 nM.

Source: US20250215017A1, “TGF-ß INHIBITOR COMPOUND AND USE THEROF” (Medinno Pharmaceutical Technology (Zhuhai) Co., Ltd., priority 2022, published 2025)
